According to US10143691B2, “Pathogenic control of apoptosis” (CSIR, priority 2014, dated 2018):
“Also recorded” adds a separate entry of the source. Like-named read-outs stand apart in the source and are kept apart here.

Key:
Format in all cases: cell-based
ATMpSer1981 = assay: Immunofluorescence staining of activated ATM (ATMpSer1981); settings: Ghost(3) cells, Doxorubicin 500 nM, no HIV
Method: (§1) For each experiment, Ghost(3) cells or IPSC-derived primary macrophages were infected or treated with 500 nM Doxorubicin on coverslips, fixed for 10 mins in fresh 4% paraformaldehyde at room temperature, then washed 3 times in PBS and permeabilised for 10 mins in ice-cold methanol at […]. Coverslips were washed once in PBS and incubated in blocking buffer (5% goat serum, 0.3% TritonX100 in PBS) for 60 mins at room temperature. Cells were incubated in primary antibody solution (1% BSA, 0.3% Triton X100 in PBS) overnight at 4° C. Double strand breaks were detected using rabbit polyclonal anti-phosphohistone H2A.X Ser139 (Cell Signaling). Activated ATM was detected using rabbit monoclonal anti-phosphoATM Ser1981 (Cell Signaling). The ability of p53 to regulate apoptosis was detected using rabbit polyclonal antiphosphop53 Ser46 (Cell Signaling). Viral p24 was detected using mouse monoclonal anti-HIV1p24 (AIDS Research and Reference Reagent Program, Division of AIDS, NIAID, NIH). HuR was detected using mouse monoclonal anti-HuR 3A2 (Santa Cruz Biotechnology). hnRNPK was detected using goat polyclonal anti-hnRNPK P20 (Santa Cruz Biotechnology). Coverslips were washed 3 times (5 mins each on an orbital shaker) with wash buffer (0.05% Tween20 in PBS), followed by incubation with secondary antibodies conjugated to either Atto550 or Atto565 or Atto647 for 60 mins at room temperature. […]

hnRNP-K = assay: Immunofluorescence of hnRNP-K cellular location in iPSC-derived macrophages; settings: iPSC-derived (primary) macrophages, Doxorubicin-treated, no HIV
Method: as §1

H2A.XpSer139 = assay: Immunofluorescence staining of double strand breaks (H2A.XpSer139)
Method: For each experiment, Ghost(3) cells or IPSC-derived primary macrophages were infected or treated with 500 nM Doxorubicin on coverslips, fixed for 10 mins in fresh 4% paraformaldehyde at room temperature, then washed 3 times in PBS and permeabilised for 10 mins in ice-cold methanol at […]. Coverslips were washed once in PBS and incubated in blocking buffer (5% goat serum, 0.3% TritonX100 in PBS) for 60 mins at room temperature. Cells were incubated in primary antibody solution (1% BSA, 0.3% Triton X100 in PBS) overnight at 4° C. Double strand breaks were detected using rabbit polyclonal anti-phosphohistone H2A.X Ser139 (Cell Signaling). Activated ATM was detected using rabbit monoclonal anti-phosphoATM Ser1981 (Cell Signaling). The ability of p53 to regulate apoptosis was detected using rabbit polyclonal antiphosphop53 Ser46 (Cell Signaling). Viral p24 was detected using mouse monoclonal anti-HIV1p24 (AIDS Research and Reference Reagent Program, Division of AIDS, NIAID, NIH). HuR was detected using mouse monoclonal anti-HuR 3A2 (Santa Cruz Biotechnology). hnRNPK was detected using goat polyclonal anti-hnRNPK P20 (Santa Cruz Biotechnology). Coverslips were washed 3 times (5 mins each on an orbital shaker) with wash buffer (0.05% Tween20 in PBS), followed by incubation with secondary antibodies conjugated to either Atto550 or Atto565 or Atto647 for 60 mins at room temperature. Coverslips were washed 3 times (5 mins each on an orbital shaker) with wash buffer (0.05% Tween20 in PBS). Coverslips were incubated in equilibration buffer (0.4% glucose, 2×SCC) for 5 mins and counter stained with 1 mg/ml DAPI (4′,6-diamidino-2-phenylindole; Life Technologies). Coverslips were mounted in glox buffer (3.7 mg/ml glucose oxidase, 1 U catalase) and imaged.
For each experiment, cells were infected or treated with drugs on coverslips, fixed for 10 mins in fresh 4% paraformaldehyde at room temperature, then washed 3 times in PBS and permeabilised for 10 mins in ice-cold methanol at −20° C. Coverslips were washed once in PBS and incubated in blocking buffer (5% goat serum, 0.3% Triton-X100 in PBS) for 60 mins at room temperature. […] Double strand breaks were detected using rabbit polyclonal anti-phospho-histone H2A.X Ser139 (Cell Signaling). Activated ATM was detected using rabbit monoclonal anti-phospho-ATM Ser1981 (Cell Signaling). The ability of p53 to regulate apoptosis was detected using rabbit polyclonal anti-phospho-p53 Ser46 (Cell Signaling). Viral p24 was detected using mouse monoclonal anti-HIV-1-p24 (AIDS Research and Reference Reagent Program, Division of AIDS, NIAID, NIH). HuR was detected using mouse monoclonal anti-HuR 3A2 (Santa Cruz Biotechnology). hnRNP-K was detected using goat polyclonal anti-hnRNP-K P-20 (Santa Cruz Biotechnology). […]

Ghost(3) cells = tested on: Ghost(3) cells
Method: Apoptosis was measured in Ghost(3) cells 30 hours post-infection or drug treatment using the NucView™ 488 Caspase3 Assay Kit (Biotium) in a 96 well format. Data was analysed in MATLAB using a probabilistic region method to measure cell attachment and expressed as percentage cell survival. […] An average of 3000 cells per condition were analysed with the exception of cells treated with Doxorubicin followed by HIV-infection (FIG. 3), cells transfected with lincRNAp21 overexpression constructs followed by Doxorubicin treatment, and cells transfected with full-length lincRNAp21, infected with HIV1 and treated with Nutlin3 (FIG. 25). These latter conditions ( ? ) yielded too few attached cells (<20) at 30 hours for similar analysis.
Apoptosis was measured in Ghost(3) cells 30 hours post-infection or drug treatment using the NucView™ 488 Caspase-3 Assay Kit (Biotium) in a 96 well format. Data was analysed in MATLAB using a probabilistic region method to measure cell attachment and expressed as percentage cell survival. […] An average of 3000 cells per condition were analysed with the exception of cells treated with Doxorubicin followed by HIV-infection (FIG. 27), cells transfected with lincRNA-p21 overexpression constructs followed by Doxorubicin treatment (FIG. 36), and cells transfected with full-length lincRNA-p21, infected with HIV-1 and treated with Nutlin3 (FIG. 45). These latter conditions ( ? ) yielded too few attached cells (<20) at 30 hours for similar analysis.

[1] = Ghost(3) cells infected with HIV-1 24 hours prior to Doxorubicin treatment
[2] = uninfected Ghost(3) cells, lethal dose of Doxorubicin (500 nM)

For COc1cccc2c1C(=O)c1c(O)c3c(c(O)c1C2=O)C[C@@](O)(C(=O)CO)C[C@@H]3O[C@H]1C[C@H](N)[C@H](O)[C@H](C)O1 [Doxorubicin], the “phosphorylation of ATM at Ser1981” value (ATMpSer1981) was “phosphorylation of both ATMpSer1981 and p53pSer46 in the nucleus within 8 hours; also recorded: Phosphorylated ATM is detected”, the “cellular location of hnRNP-K” value (hnRNP-K) was “nuclear hnRNP-K within 8 hours; also recorded: nuclear hnRNPK within 8 hours” and the “DSBs (H2A.XpSer139 staining)” value (H2A.XpSer139; [1]) was “numerous DSBs”. For the same compound, the “DSBs (H2A.XpSer139 staining)” value (H2A.XpSer139; Ghost(3) cells infected with HIV-1 after exposure to Doxorubicin) was “extensive H2A.XpSer139 staining”, the “H2A.X (pSer139) staining of DSBs” value (H2A.XpSer139; [2]) was “extensive H2A.X staining within 8 hours of treatment; also recorded: extensive H2A.XpSer139 staining” and the percentage cell survival (Ghost(3) cells; Ghost(3) cells infected with HIV-1 24 hours before the same duration of Doxorubicin treatment) was 60%. The apoptosis (Ghost(3) cells; [1]) was “do not undergo apoptosis”, the apoptosis (Ghost(3) cells; Ghost(3) cells that received Doxorubicin prior to HIV-1 infection) was “underwent apoptosis; also recorded: do undergo apoptosis” and the percentage cell survival (Ghost(3) cells; Ghost(3) cells, Doxorubicin only (lethal dose), no HIV) was 32%. For the same compound, the apoptosis (Ghost(3) cells; cells concurrently infected and treated with Maraviroc, Tenofovir or Raltegravir, Doxorubicin added 24 hours later) was “the cells underwent apoptosis” and the apoptosis (Ghost(3) cells; [2]) was “apoptosis at 48 hours; also recorded: by 24 hours, cells were apoptotic; also recorded: followed by apoptosis”.
